Results reported in patent US20240360177A1, “PEPTIDES WITH ANTIMICROBIAL ACTIVITIES” (priority 2021, published 2024).
In brackets after ≈: the same amount, converted by molar mass. Where two headings read alike, the source gives them in different places. Non-standard residues stand in square brackets, D forms with d. Residues, ends and D or L forms follow the SMILES beside them. hArg = N=C(N)NCCCC[C@H](N)C(=O)O; 4Pal = N[C@@H](Cc1ccncc1)C(=O)O; hLeu = CC(C)CC[C@H](N)C(=O)O; Inp = O=C(O)C1CCNCC1; Ava = NCCCCC(=O)O

Legend:
C. neoformans = details: 72 h
C. gattii = details: 72 h
Scedosporium spp. = details: 72 h
[1] = N = 15 strains, 24 h (Table 13)
[2] = N = 15 strains, 48 h (Table 13)

Row | Compound | MIC C. albicans (C. albicans; 24 h) [µg/mL] | MIC C. glabrata (C. glabrata; 24 h) [µg/mL] | MIC C. parapsilosis (C. parapsilosis; 24 h) [µg/mL] | MIC C. krusei (C. krusei; 24 h) [µg/mL] | MIC C. auris (C. auris; 24 h) [µg/mL] | MIC C. tropicalis (C. tropicalis; 24 h) [µg/mL] | MIC C. dubliniensis (C. dubliniensis; 24 h) [µg/mL] | also measured
1 | N=C(N)NCCC[C@@H](N)C(=O)N[C@@H](CCCNC(=N)N)C(=O)N[C@H](CCCNC(=N)N)C(=O)N[C@H](CCCNC(=N)N)C(=O)N[C@@H](CCCNC(=N)N)C(=O)N[C@H](CCCNC(=N)N)C(=O)N[C@H](CCCNC(=N)N)C(=O)N[C@@H](CCCNC(=N)N)C(=O)N[C@H](CCCNC(=N)N)C(=O)N[C@@H](CCCNC(=N)N)C(=O)N[C@H](CCCNC(=N)N)C(=O)N[C@@H](CCCNC(=N)N)C(=O)N[C@H](CCCNC(=N)N)C(=O)N[C@@H](CCCNC(=N)N)C(N)=O [14 Polyarginine, rRrrRrrRrRrRrR-NH2, reference compound] | – | – | – | – | – | – | – | Activity at 24 h MIC50 against Candida spp. (Candida spp.; [1]): 0.5 µg/mL; Activity at 24 h MIC90 against Candida spp. (Candida spp.; [1]): 8 µg/mL; Activity at 48 h MIC50 against Candida spp. (Candida spp.; [2]): 0.5 µg/mL; Activity at 48 h MIC90 against Candida spp. (Candida spp.; [2]): >32 µg/mL
2 | N=C(N)NCCC[C@@H](N)C(=O)N[C@@H](CCCNC(=N)N)C(=O)NCCCCC(=O)N[C@H](CCCNC(=N)N)C(=O)N[C@@H](CCCNC(=N)N)C(=O)N[C@H](CCCNC(=N)N)C(=O)NCCCCC(=O)N[C@H](CCCNC(=N)N)C(=O)N[C@@H](CCCNC(=N)N)C(=O)N[C@H](CCCNC(=N)N)C(=O)NCCCCC(=O)N[C@H](CCCNC(=N)N)C(=O)N[C@@H](CCCNC(=N)N)C(N)=O [SEQ ID NO: 23, rR-(Ava)-rRr-(Ava)-rRr-(Ava)-rR-NH2] (H-[dR]R[Ava][dR]R[dR][Ava][dR]R[dR][Ava][dR]R-NH2) | 2 (≈ 1.07 µM) | 4 (≈ 2.13 µM) | 0.25 (≈ 0.133 µM) | 4 (≈ 2.13 µM) | >32 | 1 (≈ 0.533 µM) | 1 (≈ 0.533 µM) | MIC C. neoformans (C. neoformans): 8 µg/mL (≈ 4.26 µM); MIC C. gattii (C. gattii): 2 µg/mL (≈ 1.07 µM); MIC Range Scedosporium spp. (Scedosporium spp.): 16 to 32 µg/mL; MIC Range Lomentospora prolificans (Lomentospora prolificans): >32 µg/mL
3 | N=C(N)NCCC[C@@H](N)C(=O)N[C@@H](CCCNC(=N)N)C(=O)N[C@H](CCCNC(=N)N)C(=O)N[C@@H](CCCNC(=N)N)C(=O)N[C@H](CCCNC(=N)N)C(=O)N1CCC[C@H]1C(=O)N[C@H](CCCNC(=N)N)C(=O)N[C@@H](CCCNC(=N)N)C(=O)N[C@H](CCCNC(=N)N)C(=O)N[C@@H](CCCNC(=N)N)C(=O)N[C@H](CCCNC(=N)N)C(=O)N1CCC[C@H]1C(=O)N[C@H](CCCNC(=N)N)C(=O)N[C@@H](CCCNC(=N)N)C(=O)N[C@H](CCCNC(=N)N)C(=O)N[C@@H](CCCNC(=N)N)C(N)=O [SEQ ID NO: 61, rRrRr-P-rRrRr-P-rRrR-NH2] (H-[dR]R[dR]R[dR]P[dR]R[dR]R[dR]P[dR]R[dR]R-NH2) | 0.25 (≈ 0.104 µM) | 0.5 (≈ 0.209 µM) | 0.25 (≈ 0.104 µM) | 0.5 (≈ 0.209 µM) | 1 (≈ 0.417 µM) | 0.25 (≈ 0.104 µM) | 0.25 (≈ 0.104 µM) | Activity at 24 h MIC50 against Candida spp. (Candida spp.; 24 h): 0.5 µg/mL; Activity at 24 h MIC90 against Candida spp. (Candida spp.; 24 h): 1 µg/mL; Activity at 48 h MIC50 against Candida spp. (Candida spp.; 48 h): 0.5 µg/mL; Activity at 48 h MIC90 against Candida spp. (Candida spp.; 48 h): 16 µg/mL
4 | N=C(N)NCCC[C@@H](N)C(=O)N[C@@H](CCCNC(=N)N)C(=O)N[C@H](CCCNC(=N)N)C(=O)N1CCC(C(=O)N[C@H](CCCNC(=N)N)C(=O)N[C@@H](CCCNC(=N)N)C(=O)N[C@H](CCCNC(=N)N)C(=O)N2CCC(C(=O)N[C@H](CCCNC(=N)N)C(=O)N[C@@H](CCCNC(=N)N)C(=O)N[C@H](CCCNC(=N)N)C(=O)N[C@@H](CCCNC(=N)N)C(=O)N3CCC(C(=O)N[C@H](CCCNC(=N)N)C(=O)N[C@@H](CCCNC(=N)N)C(=O)N[C@H](CCCNC(=N)N)C(=O)N[C@@H](CCCNC(=N)N)C(N)=O)CC3)CC2)CC1 [SEQ ID NO: 74, rRr-(Inp)-rRr-(Inp)-rRrR-(Inp)-rRrR-NH2] (H-[dR]R[dR][Inp][dR]R[dR][Inp][dR]R[dR]R[Inp][dR]R[dR]R-NH2) | 0.5 (≈ 0.197 µM) | 0.5 (≈ 0.197 µM) | 0.25 (≈ 0.0985 µM) | 1 (≈ 0.394 µM) | 0.5 (≈ 0.197 µM) | 0.5 (≈ 0.197 µM) | 0.5 (≈ 0.197 µM) | –
5 | N=C(N)NCCC[C@@H](N)C(=O)N[C@@H](CCCNC(=N)N)C(=O)N[C@H](CCCNC(=N)N)C(=O)N[C@@H](Cc1ccncc1)C(=O)N[C@H](CCCNC(=N)N)C(=O)N[C@@H](CCCNC(=N)N)C(=O)N[C@H](CCCNC(=N)N)C(=O)N[C@@H](Cc1ccncc1)C(=O)N[C@H](CCCNC(=N)N)C(=O)N[C@@H](CCCNC(=N)N)C(=O)N[C@H](CCCNC(=N)N)C(=O)N[C@@H](CCCNC(=N)N)C(=O)N[C@@H](Cc1ccncc1)C(=O)N[C@H](CCCNC(=N)N)C(=O)N[C@@H](CCCNC(=N)N)C(=O)N[C@H](CCCNC(=N)N)C(=O)N[C@@H](CCCNC(=N)N)C(N)=O [SEQ ID NO: 77, rRr-(4-PyrAla)-rRr-(4-PyrAla)-rRrR-(4-PyrAla)-rRrR-NH2] (H-[dR]R[dR][4Pal][dR]R[dR][4Pal][dR]R[dR]R[4Pal][dR]R[dR]R-NH2) | 0.5 (≈ 0.189 µM) | 0.5 (≈ 0.189 µM) | 0.25 (≈ 0.0944 µM) | 0.5 (≈ 0.189 µM) | 0.5 (≈ 0.189 µM) | 0.5 (≈ 0.189 µM) | 0.5 (≈ 0.189 µM) | –
6 | N=C(N)NCCC[C@@H](N)C(=O)N[C@@H](CCCNC(=N)N)C(=O)N[C@@H](Cc1ccncc1)C(=O)N[C@H](CCCNC(=N)N)C(=O)N[C@@H](CCCNC(=N)N)C(=O)N[C@@H](Cc1ccncc1)C(=O)N[C@H](CCCNC(=N)N)C(=O)N[C@@H](CCCNC(=N)N)C(=O)N[C@H](CCCNC(=N)N)C(=O)N[C@@H](Cc1ccncc1)C(=O)N[C@H](CCCNC(=N)N)C(=O)N[C@@H](CCCNC(=N)N)C(=O)N[C@H](CCCNC(=N)N)C(N)=O [SEQ ID NO: 78, rR-(4-PyrAla)-rR-(4-PyrAla)-rRr-(4-PyrAla)-rRr-NH2] (H-[dR]R[4Pal][dR]R[4Pal][dR]R[dR][4Pal][dR]R[dR]-NH2) | 0.5 (≈ 0.247 µM) | 0.5 (≈ 0.247 µM) | 0.25 (≈ 0.124 µM) | 1 (≈ 0.494 µM) | 16 (≈ 7.91 µM) | 0.5 (≈ 0.247 µM) | 0.25 (≈ 0.124 µM) | –
7 | N=C(N)NCCCC[C@H](NC(=O)[C@@H](CCCNC(=N)N)NC(=O)[C@H](CCCCNC(=N)N)NC(=O)[C@@H](CCCNC(=N)N)NC(=O)CCCCNC(=O)[C@H](CCCCNC(=N)N)NC(=O)[C@@H](CCCNC(=N)N)NC(=O)[C@H](CCCCNC(=N)N)NC(=O)[C@@H](CCCNC(=N)N)NC(=O)CCCCNC(=O)[C@@H](CCCNC(=N)N)NC(=O)[C@H](CCCCNC(=N)N)NC(=O)[C@@H](CCCNC(=N)N)NC(=O)CCCCNC(=O)[C@@H](CCCNC(=N)N)NC(=O)[C@H](CCCCNC(=N)N)NC(=O)[C@H](N)CCCNC(=N)N)C(N)=O [SEQ ID NO: 89, r(Har)r-(Ava)-r(Har)r-(Ava)-r(Har)r(Har)-(Ava)-r(Har)r(Har)-NH2] (H-[dR][hArg][dR][Ava][dR][hArg][dR][Ava][dR][hArg][dR][hArg][Ava][dR][hArg][dR][hArg]-NH2) | 1 (≈ 0.387 µM) | 1 (≈ 0.387 µM) | 0.5 (≈ 0.193 µM) | 1 (≈ 0.387 µM) | 0.5 (≈ 0.193 µM) | 1 (≈ 0.387 µM) | 1 (≈ 0.387 µM) | MIC C. neoformans (C. neoformans): 0.25 µg/mL (≈ 0.0967 µM); MIC C. gattii (C. gattii): 0.25 µg/mL (≈ 0.0967 µM)
8 | CC(C)CC[C@H](N)C(=O)N[C@@H](CCCNC(=N)N)C(=O)N[C@H](CCCNC(=N)N)C(=O)N1CCC[C@H]1C(=O)N[C@H](CCCNC(=N)N)C(=O)N[C@@H](CCCNC(=N)N)C(=O)N[C@H](CCCNC(=N)N)C(=O)N1CCC[C@H]1C(=O)N[C@H](CCCNC(=N)N)C(=O)N[C@@H](CCCNC(=N)N)C(=O)N[C@H](CCCNC(=N)N)C(=O)N[C@@H](CCCNC(=N)N)C(=O)N1CCC[C@H]1C(=O)N[C@H](CCCNC(=N)N)C(=O)N[C@@H](CCCNC(=N)N)C(=O)N[C@H](CCCNC(=N)N)C(=O)N[C@@H](CCCNC(=N)N)C(N)=O [SEQ ID NO: 94, (hLeu)Rr-P-rRr-P-rRrR-P-rRrR-NH2] (H-[hLeu]R[dR]P[dR]R[dR]P[dR]R[dR]RP[dR]R[dR]R-NH2) | 0.5 (≈ 0.203 µM) | 0.5 (≈ 0.203 µM) | 0.25 (≈ 0.101 µM) | 1 (≈ 0.406 µM) | 1 (≈ 0.406 µM) | 0.5 (≈ 0.203 µM) | 0.5 (≈ 0.203 µM) | –
9 | rRr-(Apg)-rRr-(Apg)-rRrR-(Apg)-rRrR-NH2 [SEQ ID NO: 38] | 0.5 | 1 | 0.25 | 0.25 | 2 | 0.5 | 0.5 | –
10 | rRr-(Igl)-rRr-(Igl)-rRrR-(Igl)-rRrR-NH2 [SEQ ID NO: 75] | – | – | – | – | – | – | – | MIC C. albicans (C. albicans): 0.5 µg/mL; MIC C. glabrata (C. glabrata): 0.5 µg/mL; MIC C. parapsilosis (C. parapsilosis): 0.5 µg/mL; MIC C. krusei (C. krusei): 0.5 µg/mL; MIC C. auris (C. auris): 0.5 µg/mL; MIC C. tropicalis (C. tropicalis): 0.5 µg/mL; MIC C. dubliniensis (C. dubliniensis): 0.5 µg/mL
